Where two headings read alike, the source gives them in different places.
Key:
Assay type in all cases: cell-based, human
[1] = tested on: peripheral blood mononuclear cells (PBMC); assay: Mixed lymphocyte reaction (MLR) test
Method: All reagents were dissolved in 0.5 ml dimethylsulfoxide (hereinafter referred as DMSO) and further diluted in culture medium before use for the following in vitro experiments. The commercially available culture medium consisted of RPMI-1640+10% foetal calf serum (FCS). Peripheral blood mononuclear cells (hereinafter referred as PBMC) were isolated from heparinized peripheral blood by density gradient centrifugation over Lymphoprep (Nycomed, Maorstua, Norway). Allogeneic PBMC or […]-Barr Virus-transformed human B cells [commercially available under the trade name RPMI1788 (ATCC name CCL156)] which strongly express B7-1 and B7-2 antigens were used as stimulator cells after irradiation with 30 Gy. MLR was performed in triplicate wells. After 5 days incubation at 37° C., 1 μCi [^3H]-thymidine was added to each cup. After a further 16 hours incubation, cells were harvested and counted in a β-counter. Inhibition of proliferation by a compound (drug) described in some of the previous examples was counted using the formula: [formula] wherein cpm is the thymidine count per minute. TNF-Alpha and IL-1 Beta Assays

[2] = tested on: TNF-alpha production by PBMC; assay: TNF-alpha assay, LPS-stimulated PBMC, sandwich ELISA
Method: (§1) All reagents were dissolved in 0.5 ml dimethylsulfoxide (hereinafter referred as DMSO) and further diluted in culture medium before use for the following in vitro experiments. The commercially available culture medium consisted of RPMI-1640+10% foetal calf serum (FCS). Peripheral blood mononuclear cells (herein referred as PBMC), in response to stimulation by lipopolysaccharide (LPS), a gram-negative bacterial endotoxin, produce various […], in particular human TNF-alpha and II-1 beta. The inhibition of the activation of PBMC can be measured by the level of suppression of the production of TNF-alpha or IL-1 beta by PBMC in response to stimulation by LPS. Such inhibition measurement was performed as follows: PBMC were isolated from heparinized peripheral blood (Buffy coat) by density gradient centrifugation. LPS is then added to the PMBC suspension in complete medium (10^6 cells/ml) at a final concentration of 1 μg/ml. The compound to be tested was added at different dilution levels, and the cells were incubated at 37° C. for 72 hours. The supernatants were collected, and TNF-alpha or II-1 beta concentrations were measured with respectively an anti-TNF antibody or an anti-IL-1 beta antibody in a sandwich ELISA. The percent inhibition was calculated as: % inhibition=(pg/ml in sample−pg/ml min.)/(pg/ml max.−pg/ml min.)−1 wherein: min.: pg/ml in culture medium without test compound, and • max.: pg/ml in culture medium+LPS without test compound.

[3] = tested on: IL-1 beta production by PBMC; assay: IL-1 beta assay, LPS-stimulated PBMC, sandwich ELISA
Method: as §1

[4] = Table 7, same conditions as example 26
[5] = Table 7, same conditions as example 26, read-out: TNFα IC50
[6] = Table 7, same conditions as example 26, read-out: IL1β IC50
[7] = Table 2, LPS 1 μg/ml, 72 hours, read-out: TNF IC50
[8] = Table 2, LPS 1 μg/ml, 72 hours, read-out: IL-1 IC50
[9] = Table 2, [3H]-thymidine incorporation after 5 days incubation

Row | Compound | IC50 [1, 4] | IC50 [2, 5] | IC50 [3, 6] | IC50 [2, 7] | IC50 [3, 8] | IC50 [1, 9]
1 | 7-chloro-3-(chlorophenyl)-1-methyl-lumazine [Example 46] | 5.7 µM | 4700 nM | 900 nM |  |  | 
2 | Cn1c(=O)[nH]c2nc(Cl)c(-c3ccccc3)nc2c1=O [Example 6, 3-methyl-6-phenyl-7-chloro-lumazine] |  |  |  | 3000 nM | 400 nM | 
3 | Cn1c(=O)[nH]c(=O)c2nc(-c3ccccc3)c(Cl)nc21 [Example 14, 1-methyl-6-phenyl-7-chloro-lumazine] |  |  |  |  | 350 nM | 4.1 µM
4 | COc1ccc(-c2nc3c(=O)[nH]c(=O)n(C)c3nc2Cl)cc1 [Example 15, 1-methyl-6-(4′-methoxyphenyl)-7-chloro-lumazine] |  |  |  | 800 nM | 400 nM | 3 µM
5 | Cc1ccc(-c2nc3c(=O)[nH]c(=O)n(C)c3nc2Cl)cc1 [Example 16, 1-methyl-6-(4′-methylphenyl)-7-chloro-lumazine] |  |  |  | 1100 nM |  | 3.6 µM
6 | O=c1[nH]c(=O)n(-c2ccccc2)c2nc(Cl)c(-c3ccccc3)nc12 [Example 17, 1,6-diphenyl-7-chloro-lumazine] |  |  |  | 800 nM | 200 nM | 3 µM
7 | O=c1[nH]c(=O)n(Cc2ccccc2)c2nc(Cl)c(-c3ccccc3)nc12 [Example 18, 1-benzyl-6-phenyl-7-chloro-lumazine] |  |  |  | 4500 nM |  | 4.4 µM
8 | COc1ccc(-c2nc3c(=O)[nH]c(=O)n(C)c3nc2Cl)cc1OC [Example 19, 1-methyl-6-(3′,4′-dimethoxyphenyl)-7-chloro-lumazine] |  |  |  | 1100 nM |  | 5.1 µM
9 | Cn1c(=O)[nH]c(=O)c2nc(-c3ccc(Cl)cc3)c(Cl)nc21 [Example 20, 1-methyl-6-(4′-chlorophenyl)-7-chloro-lumazine] |  |  |  | 3800 nM | 400 nM | 
10 | COc1ccc(-c2nc3c(=O)[nH]c(=O)n(C)c3nc2Cl)cc1 [Example 40, 7-chloro-6-(4-methoxyphenyl)-1-methyl-lumazine] | 3.3 µM | 800 nM | 600 nM |  |  | 
11 | COc1ccc(-c2nc3c(=O)[nH]c(=O)n(C)c3nc2Cl)cc1OC [Example 41, 7-chloro-6-(3,4-dimethoxyphenyl)-1-methyl-lumazine] | 5.1 µM | 1700 nM | 700 nM |  |  | 
12 | COc1cccc(-c2nc3c(=O)[nH]c(=O)n(C)c3nc2Cl)c1 [Example 43, 7-chloro-6-(3-methoxyphenyl)-1-methyl-lumazine] | 4.9 µM | 3700 nM | 2000 nM |  |  | 
13 | COc1cccc(OC)c1-c1nc2c(=O)[nH]c(=O)n(C)c2nc1Cl [Example 44, 7-chloro-(2,6-dimethoxyphenyl)-1-methyl-lumazine] | 4.9 µM | 5900 nM | 500 nM |  |  | 
14 | Cn1c(=O)[nH]c(=O)c2nc(-c3ccccc3Cl)c(Cl)nc21 [Example 45, 7-chloro-(2-chlorophenyl)-1-methyl-lumazine] | 3.9 µM | 2300 nM | 300 nM |  |  | 
15 | Cn1c(=O)[nH]c(=O)c2nc(-c3ccc(C#N)cc3)c(Cl)nc21 [Example 48, 7-chloro6-(4-cyanophenyl)-1-methyl-lumazine] | 4.3 µM | 2500 nM | 400 nM |  |  | 
16 | COc1ccc(-c2nc3c(=O)[nH]c(=O)n(C)c3nc2Br)cc1OC [Example 50, 7-bromo-6-(3,4-dimethoxyphenyl)-1-methyl-lumazine] | 4 µM | 1000 nM | 600 nM |  |  | 

Row | Compound | IC50 [1, 4] | IC50 [2, 5] | IC50 [3, 6] | IC50 [2, 7] | IC50 [3, 8] | IC50 [1, 9]
17 | COc1ccc(-c2nc3c(=O)[nH]c(=O)n(C)c3nc2Br)cc1 [Example 51, 7-bromo-6-(4-methoxyphenyl)-1-methyl-lumazine] | 3.6 µM | 4600 nM | 5700 nM |  |  | 
18 | Cc1ccc(-c2nc3c(=O)[nH]c(=O)n(C)c3nc2Cl)cc1 [Example 52, 7-chloro-1-methyl-6-(4-methylphenyl)-lumazine] | 3.5 µM | 1100 nM |  |  |  | 
19 | O=c1[nH]c(=O)n(Cc2ccccc2)c2nc(Cl)c(-c3ccccc3)nc12 [Example 53, 7-chloro-1-benzyl-6-phenyl-lumazine] | 4.4 µM | 4500 nM | 1200 nM |  |  | 
20 | Cn1c(=O)[nH]c(=O)c2nc(-c3ccc(Cl)cc3)c(Cl)nc21 [Example 54, 7-chloro-6-(4-chlorophenyl)-1-methyl-lumazine] |  | 3800 nM | 500 nM |  |  | 
21 | CCOC(=O)CCCn1c(=O)c2nc(-c3ccccc3)c(Cl)nc2n(C)c1=O [Example 55, 7-chloro-3-(ethyl butyrate)-1-methyl-6-phenyl-lumazine] | 4.9 µM | 500 nM | 600 nM |  |  | 
22 | CCOC(=O)CCCn1c(=O)n(C)c(=O)c2nc(-c3ccccc3)c(Cl)nc21 [Example 56, 7-chloro-1-(ethyl butyrate)-3-methyl-6-phenyl-lumazine] | 4.9 µM | 500 nM | 600 nM |  |  | 
23 | Cn1c(=O)n(CCO)c(=O)c2nc(-c3ccccc3)c(Cl)nc21 [Example 57, 7-chloro-3-(2-hydroxyethyl)-1-methyl-6-phenyl-lumazine] | 5 µM | 400 nM | 700 nM |  |  | 
24 | Cn1c(=O)n(CCc2ccccc2)c(=O)c2nc(-c3ccccc3)c(Cl)nc21 [Example 58, 7-chloro-3-(2-phenylethyl)-1-methyl-6-phenyl-lumazine] | 5.6 µM | 5500 nM | 500 nM |  |  | 
25 | Cn1c(=O)n(Cc2ccccc2)c(=O)c2nc(-c3ccccc3)c(Cl)nc21 [Example 59, 7-chloro-3-benzyl-1-methyl-6-phenyl-lumazine] | 5 µM | 5300 nM | 500 nM |  |  | 
26 | Cn1c(=O)c2nc(-c3ccccc3)c(Cl)nc2n(CCc2ccccc2)c1=O [Example 60, 7-chloro-1-(2-phenylethyl)-3-methyl-6-phenyl-lumazine] | 3.5 µM | 5800 nM | 4100 nM |  |  | 
27 | Cn1c(=O)c2nc(-c3ccccc3)c(Cl)nc2n(Cc2ccccc2)c1=O [Example 61, 1-benzyl-7-chloro-3-methyl-6-phenyl-lumazine] | 3.7 µM | 700 nM | 500 nM |  |  | 
28 | Cn1c(=O)c2nc(-c3ccccc3)c(Cl)nc2n(CCO)c1=O [Example 62, 7-chloro-1-(2-hydroxyethyl)-3-methyl-6-phenyl-lumazine] | 2.5 µM | 600 nM | 600 nM |  |  | 
29 | CCOC(=O)CCCn1c(=O)c2nc(-c3ccc(OC)c(OC)c3)c(Cl)nc2n(C)c1=O [Example 63, 7-chloro-6-(3,4-dimethoxyphenyl)-3-(ethyl butyrate)-1-methyl-lumazine] | 5.7 µM | 600 nM | 900 nM |  |  | 
30 | COc1ccc(-c2nc3c(=O)n(CCO)c(=O)n(C)c3nc2Cl)cc1OC [Example 64, 7-chloro-6-(3,4-dimethoxyphenyl)-3-(2-hydroxyethyl)-1-methyl-lumazine] | 5.7 µM | 700 nM | 500 nM |  |  | 
31 | CCOC(=O)CCCn1c(=O)c2nc(-c3ccccc3)c(Cl)nc2n(-c2ccccc2)c1=O [Example 65, 7-chloro-1,6-diphenyl-3-(ethyl butyrate)-lumazine] | 3.8 µM | 800 nM | 500 nM |  |  | 
32 | Cn1c(=O)n(CCCC#N)c(=O)c2nc(-c3ccccc3)c(Cl)nc21 [Example 67, 3-butyronitrile-7-chloro-1-methyl-6-phenyl-lumazine] | 4.8 µM | 700 nM | 600 nM |  |  | 

Reference: patent US20070043000A1, “Immunosuppresive effects of pteridine derivatives” (priority 2003, published 2007)
